Where a name gives a salt, the structure may show the parent alone.
Tests used:
CDK1/cycA1 = molecular target: T1, CDK1/cycA1 (Homo sapiens, UniProt P06493); test: In vitro kinase assay (PKLight luciferase ATP readout), CDK1; type: biochemical; details: ATP at Km; read-out: In vitro Kinase Inhibition CDK1 IC50
T1 construct: purchased ProQinase GmbH
Description: (§1) Purified recombinant CDK1/cycA1, CDK2/cycA1, CDK4/cycD1, CDK5/p35NCK, CDK6/cycD1, CDK7/CycH/MAT1, and CDK9/CycT1 were purchased from ProQinase GmbH. Kinase assays were performed according to manufacturer's protocols. Rb-CTF (ProQinase GmbH) (cat number: 0040-0000-6) was used as the kinase substrate for CDK1, CDK2, CDK4, and CDK6 kinases. […] A luciferase assay (PKLight assay; Cambrex) was used to determine ATP remaining at the end of the kinase reaction, which provides a measure of kinase activity, according to the manufacturer's protocols.
(§2) Kinase assays were carried out by incubation of increasing amounts of test compound with purified recombinant CDK-Cyclin complex, followed by measurement of free ATP remaining in the reaction using the luciferase assay kit (PKLight, Cambrex) which therefore provided a measure of inhibition for the specific CDK.
(§3) 5 μL of 1× kinase buffer (Cell Signalling Technologies) was mixed with 200 ng CDK1, 200 ng CDK2, 50 ng CDK4, 100 ng CDK5, or 200 ng CDK6 with 5 μg Rb-CTF and 300 ng CDK7 or 200 ng CDK9 with 500 μM RNA Poll II CTD peptide. […] The mixture was incubated at 30° C. for 30 minutes. The reaction is stopped with 20 μL of Stop Solution (provided in the PKLight kit) for 10 minutes at room temperature. Then 40 μL of the luciferase mix was added to the reaction mixture which was incubated for a further 10 minutes at room temperature and measured using the Tecan Infinite 2000 plate reader. GraphPad Prism Software was used to generate standard curve and determine the IC50's for each CDK.

CDK2/cycA1 = molecular target: T2, CDK2/cycA1 (Homo sapiens, UniProt P24941); test: In vitro kinase assay (PKLight luciferase ATP readout), CDK2; type: biochemical; details: ATP at Km; read-out: In vitro Kinase Inhibition CDK2 IC50
T2 construct: purchased ProQinase GmbH
Description: as §1, §2, §3

CDK7/CycH/MAT1 = molecular target: T3, CDK7/CycH/MAT1 (Homo sapiens, UniProt P50613); test: In vitro kinase assay (PKLight luciferase ATP readout), CDK7; type: biochemical; details: for IC50: ATP at Km, read-out: In vitro Kinase Inhibition CDK7 IC50; for Selectivity CDK1/CDK7: ratio of CDK1 IC50 to CDK7 IC50; for Selectivity CDK2/CDK7: ratio of CDK2 IC50 to CDK7 IC50
T3 construct: purchased ProQinase GmbH
Description: as §1, §2, §3

MCF7 cells = test: Cell growth inhibition assay (sulforhodamine B), MCF7; type: cell-based; details: Homo sapiens, 72 hours, SRB assay, read-out: Growth Inhibition, GI50 MCF7
Description: (§4) All cells were purchased from the American Type Culture Collection (ATCC) and MCF7 cells were routinely cultured in Dulbecco's Modified Eagle's Medium (DMEM) supplemented with 10% fetal calf serum (FCS) (First Link) and HCT116 cells were routinely cultured in Roswell Park Memorial Instititute Medium (RPMI) supplemented with 10% FCS. Cell growth was assessed using a known sulforhodamine B assay (see, e.g., Skehan et al., 1990).
(§5) MCF-7 cells purchased from ATCC (USA) were routinely passaged in DMEM, supplemented with 10% FCS and HCT116 cells purchased from ATCC (USA) were routinely passaged in RPMI supplemented with 10% FCS and kept in a 37° C. incubator with 5% CO2. The growth assay for both cell lines was performed in the appropriate media using the exact same protocol as described here. For the growth assay, 5000 cells were seeded into each well of 96-well plates in DMEM containing 10% FCS. Test compounds prepared in DMSO were added to the medium at concentrations ranging from 0.00038-100 μM. The cells were incubated for a further 72 hours, at which time they were fixed by the addition of 100 μL/well of ice-cold 40% trichloroacetic acid (TCA). The plates were left for 1 hour at 4° C., washed in water and 100 μL of 0.4% (w/v) sulforhodamine (SRB; Sigma-Aldrich, UK) prepared in 1% acetic acid was added. Plates were washed in 1% acetic acid to remove excess SRB reagent, air dried, and bound dye was solubilized by the addition of 100 μL of 10 mM tris base. The plates were read at 492 nm using a plate reader.

HCT116 cells = test: Cell growth inhibition assay (sulforhodamine B), HCT116; type: cell-based; details: Homo sapiens, HCT-116; 72 hours, SRB assay; read-out: Growth Inhibition, GI50 HCT116
Description: as §4, §5

T3 sequence (P50613 whole entry): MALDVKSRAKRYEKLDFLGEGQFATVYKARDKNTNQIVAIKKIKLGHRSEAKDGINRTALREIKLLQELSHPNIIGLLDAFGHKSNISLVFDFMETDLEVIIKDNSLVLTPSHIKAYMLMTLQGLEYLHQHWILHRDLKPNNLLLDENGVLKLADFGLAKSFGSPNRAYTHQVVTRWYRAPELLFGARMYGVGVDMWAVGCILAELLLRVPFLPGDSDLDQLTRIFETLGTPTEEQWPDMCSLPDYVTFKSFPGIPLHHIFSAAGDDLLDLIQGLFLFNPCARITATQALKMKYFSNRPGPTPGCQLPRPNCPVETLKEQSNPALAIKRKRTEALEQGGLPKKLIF
T3 sequence (P51946 whole entry partner): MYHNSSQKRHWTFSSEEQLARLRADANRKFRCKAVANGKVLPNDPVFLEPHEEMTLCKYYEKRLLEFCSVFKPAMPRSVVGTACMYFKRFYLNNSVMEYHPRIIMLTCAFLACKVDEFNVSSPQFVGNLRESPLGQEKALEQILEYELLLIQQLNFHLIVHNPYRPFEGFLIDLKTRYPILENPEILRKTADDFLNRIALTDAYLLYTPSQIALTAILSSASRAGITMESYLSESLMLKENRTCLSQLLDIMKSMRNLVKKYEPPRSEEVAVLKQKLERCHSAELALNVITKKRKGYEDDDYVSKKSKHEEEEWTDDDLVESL
T3 sequence (P51948 whole entry partner): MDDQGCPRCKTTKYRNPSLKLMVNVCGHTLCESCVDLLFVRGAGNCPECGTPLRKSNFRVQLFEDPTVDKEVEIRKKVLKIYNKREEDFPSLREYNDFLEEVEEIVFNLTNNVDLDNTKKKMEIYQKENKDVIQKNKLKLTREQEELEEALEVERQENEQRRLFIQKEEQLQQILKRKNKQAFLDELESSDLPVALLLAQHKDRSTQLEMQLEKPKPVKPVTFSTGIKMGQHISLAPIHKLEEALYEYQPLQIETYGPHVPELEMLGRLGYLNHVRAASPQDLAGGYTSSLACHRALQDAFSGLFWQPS

Structure (SMILES)	IC50 (CDK1/cycA1)	IC50 (CDK2/cycA1)	IC50 (CDK7/CycH/MAT1)	Selectivity CDK1/CDK7 (CDK7/CycH/MAT1)	Selectivity CDK2/CDK7 (CDK7/CycH/MAT1)	GI50 (MCF7 cells)	GI50 (HCT116 cells)
CC(C)c1cnn2c(NCc3ccccc3)cc(NC[C@]3(O)CCNC[C@H]3O)nc12 (racemic) [PPDA-002, (3R,4R)-4-((7-(Benzylamino)-3-iso-propyl-pyrazolo[1,5-a]pyrimidin-5-ylamino)methyl)piperidine-3,4-diol hydrochloride]	1380 nM	2030 nM	18 nM	77 fold	113 fold	1500 nM	5100 nM
CC(C)c1cnn2c(NCC3CCCCC3)cc(NC[C@@]3(CO)CCNC3)nc12 (racemic) [PPDA-019]	80 nM	9 nM	29 nM	2.8 fold	0.3 fold	300 nM	400 nM
CC(C)c1cnn2c(NCC3CCCCC3)cc(N[C@H]3CNC[C@H]3O)nc12 [PPDA-016]	1460 nM	4550 nM	246 nM	5.9 fold	18 fold	13100 nM	7400 nM
CC(C)c1cnn2c(NCc3ccncc3)cc(NCC3(O)CCNCC3)nc12 [PPDA-010, 4-(((3-iso-Propyl-7-((pyridin-4-ylmethyl)amino)pyrazolo[1,5-a]pyrimidin-5-yl)amino)methyl)piperidin-4-ol hydrochloride]	3620 nM	115 nM	788 nM	4.6 fold	0.1 fold	11900 nM	25000 nM
CC(C)c1cnn2c(NCc3ccccc3Cl)cc(NCC3(O)CCNCC3)nc12 [PPDA-011]	143 nM	98 nM	414 nM	0.3 fold	0.2 fold	300 nM	1600 nM
CC(C)c1cnn2c(NCc3ccccc3)cc(N[C@@H]3CN[C@H](CO)C3)nc12 [PPDA-026, ((2S,4S)-4-(7-(Benzylamino)-3-iso-propylpyrazolo[1,5-a]pyrimidin-5-ylamino)pyrrolidin-2-yl)methanol hydrochloride]	162 nM	203 nM	89 nM	1.8 fold	2.3 fold	2000 nM	10700 nM

— US11566029B2, “Pyrazolo[1,5-a]pyrimidine-5,7-diamine compounds as CDK inhibitors and their therapeutic use” (CANCER RESEARCH TECHNOLOGY LIMITED, priority 2014, dated 2023)
